Legend:
Format in all cases: biochemical
Conditions in all cases: 20 µg/mL (12 µM)
human NTPDase3 = molecular target: T1, human NTPDase3 (Homo sapiens, UniProt O75355); assay: NTPDase CE-based assay, NTPDase3
T1 construct: made in house; host or cells: COS-7 cells
T1 sequence (O75355 1-529): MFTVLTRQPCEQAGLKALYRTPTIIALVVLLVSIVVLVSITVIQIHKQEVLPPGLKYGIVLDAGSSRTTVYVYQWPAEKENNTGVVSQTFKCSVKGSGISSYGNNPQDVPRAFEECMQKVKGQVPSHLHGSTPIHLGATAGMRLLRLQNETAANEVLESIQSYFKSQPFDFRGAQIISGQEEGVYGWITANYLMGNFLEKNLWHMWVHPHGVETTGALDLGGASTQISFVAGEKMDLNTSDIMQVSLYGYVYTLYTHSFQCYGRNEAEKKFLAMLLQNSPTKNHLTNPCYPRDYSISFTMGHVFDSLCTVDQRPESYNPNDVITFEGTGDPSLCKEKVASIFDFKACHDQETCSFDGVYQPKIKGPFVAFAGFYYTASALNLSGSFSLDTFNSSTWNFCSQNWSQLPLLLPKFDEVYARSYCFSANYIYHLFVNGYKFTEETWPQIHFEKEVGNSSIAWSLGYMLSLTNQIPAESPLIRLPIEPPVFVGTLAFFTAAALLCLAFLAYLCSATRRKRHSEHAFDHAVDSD
Description: (§1) For monitoring the activity of human NTPDases (subtypes 1, 2, 3 and 8) in the presence of test compounds, a CE-based assay system was used, according to a published procedure ([11], [25]). The following concentrations of test compounds were investigated in initial screening studies: 63 IU/mL of compounds 1 and 2, 30 µM of compound 6. For selectivity studies, the following concentration were employed: 50 IU/mL of 1, 12 µM of 6, and 48 µM of 7. The amount of enzyme was selected according to previously performed enzymatic titration, and adjusted to ensure a 10–20% conversion rate. Enzymes were obtained by transfection of COS-7 cells using plasmids encoding human NTPDase1 (GenBank accession number U87967) ([26]), NTPDase2 (NM_203468) ([27]), a kind gift of Dr. A.F. Knowles (San Diego, CA), NTPDase3 (AF034840) ([28]), a kind gift of Dr. T.L. Kirley (Cincinnati, OH) and human NTPDase8 (AY430414) ([29]) and purified as previously described ([30], [31]). The reaction buffer consisted of 10 mM HEPES, 2 mM CaCl2, and 1 mM MgCl2, pH 7.4. In the CE assay, the selected substrate concentration (ATP) was 100 µM for all studied human NTPDases (-1, -2, -3 and -8). […] The released products were separated by CE and quantified by their UV-absorption at 260 nm with ADP and AMP as external standards, as previously described ([11]); positive and negative controls were included.

human NTPDase8 = molecular target: T2, human NTPDase8 (Homo sapiens, UniProt Q5MY95); assay: NTPDase CE-based assay, NTPDase8
T2 construct: made in house; host or cells: COS-7 cells
T2 sequence (Q5MY95 1-495): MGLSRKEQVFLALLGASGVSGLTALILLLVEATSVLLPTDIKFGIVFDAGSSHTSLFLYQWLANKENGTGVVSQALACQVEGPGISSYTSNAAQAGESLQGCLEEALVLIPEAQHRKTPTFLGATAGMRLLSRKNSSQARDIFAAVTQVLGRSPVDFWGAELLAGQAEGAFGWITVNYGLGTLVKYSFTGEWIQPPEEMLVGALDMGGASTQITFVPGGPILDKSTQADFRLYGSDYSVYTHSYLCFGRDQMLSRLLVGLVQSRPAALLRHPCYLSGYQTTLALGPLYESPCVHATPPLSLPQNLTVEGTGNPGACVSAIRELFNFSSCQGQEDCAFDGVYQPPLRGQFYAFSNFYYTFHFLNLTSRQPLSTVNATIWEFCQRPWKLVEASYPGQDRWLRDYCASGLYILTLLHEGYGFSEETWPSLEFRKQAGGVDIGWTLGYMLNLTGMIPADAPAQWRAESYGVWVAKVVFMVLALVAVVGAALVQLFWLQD
Description: as §1

human NPP4 = molecular target: T3, human NPP4 (Homo sapiens, UniProt Q9Y6X5); assay: NPP4 luminescence-based assay, Ap4A as substrate
T3 construct: as a substrate and human soluble NPP4; made in house
T3 sequence (Q9Y6X5 16-407 limits assumed): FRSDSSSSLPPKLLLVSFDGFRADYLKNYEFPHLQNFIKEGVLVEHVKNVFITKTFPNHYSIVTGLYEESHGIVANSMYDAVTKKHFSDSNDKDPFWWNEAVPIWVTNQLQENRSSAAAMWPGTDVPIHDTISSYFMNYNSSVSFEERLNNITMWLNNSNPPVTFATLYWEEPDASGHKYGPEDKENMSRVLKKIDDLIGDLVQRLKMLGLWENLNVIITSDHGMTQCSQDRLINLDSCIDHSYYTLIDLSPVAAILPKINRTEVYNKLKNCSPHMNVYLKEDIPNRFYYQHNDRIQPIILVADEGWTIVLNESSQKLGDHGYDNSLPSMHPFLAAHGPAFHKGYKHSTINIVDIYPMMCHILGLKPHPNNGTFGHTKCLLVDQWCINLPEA
Description: Selectivity studies on NPP4 were performed using a published luminescence-based assay versus 20 μM of diadenosine tetraphosphate (Ap4A) as a substrate and human soluble NPP4 ([24]). The assay buffer consisted of 10 mM HEPES, 1 mM MgCl2, and 2 mM CaCl2 (pH 8.00). The enzyme reaction was started by adding 0.14 μg of purified human NPP4 to the reaction mixture, which was incubated at 37°C for 90 min. The released product ATP was quantified using the luciferin-luciferase reaction. The firefly luciferase reacts with D-luciferin in the presence of the formed ATP and Mg^2+. The resulting luminescence is a measure of the enzymatic activity, and the luminescence was read at 560 nm using a microplate reader (BMG PheraStar). Three independent experiments were performed, each in duplicate measurements; positive and negative controls were included.

- NTPDase3 inhibition, selectivity study (human NTPDase3): no effect
- NTPDase8 inhibition, selectivity study (human NTPDase8): no effect
- NPP4 inhibition, selectivity study (human NPP4): no effect
SMILES: CO[C@H]1O[C@H](COS(=O)(=O)O)[C@@H](O[C@@H]2O[C@@H](C(=O)O)[C@@H](O[C@H]3O[C@H](COS(=O)(=O)O)[C@@H](O[C@@H]4O[C@H](C(=O)O)[C@@H](O[C@H]5O[C@H](COS(=O)(=O)O)[C@@H](O)[C@H](O)[C@H]5NS(=O)(=O)O)[C@H](O)[C@H]4O)[C@H](OS(=O)(=O)O)[C@H]3NS(=O)(=O)O)[C@H](O)[C@H]2OS(=O)(=O)O)[C@H](O)[C@H]1NS(=O)(=O)O [Compound 6, Fondaparinux]

Source: article PMC10497752, “Heparins are potent inhibitors of ectonucleotide pyrophosphatase/phospho-diesterase-1 (NPP1) – a promising target for the immunotherapy of cancer” (Frontiers in Immunology, 2023)
